Patent publication US8741852B2, “Peptides having antimicrobial activity” (Universiti Malaya, priority 2012, dated 2014)
Where two headings read alike, the source gives them in different places. No end group written: not given here.

Assays:
K. pneumoniae = format: cell-based, Klebsiella pneumoniae
Protocol: (§1) Apart from Streptococcus pneumonia, the antimicrobial peptides are also tested for antimicrobial activity against eight common bacterial pathogens of both gram-types as shown in Table 2. […] Testing against the gram-negative Acinetobacter baumannii (31.25 μg/ml) and Citrobacter spp.

S. aureus = format: cell-based, Staphylococcus aureus
Protocol: as §1

Streptococcus pneumoniae = experiment: MIC by broth microdilution against all 60 pneumococcal isolates (overall); format: cell-based
Source text: (§2) The antimicrobial peptides are thereafter tested using broth microdilution assay 5×10^5 cfu/ml against a total of 60 pneumococcal isolates (20 isolates for each penicillin-susceptible, -intermediate, and -resistant pneumococci) to determine their minimum inhibitory concentration (MIC).

E. cloacae = tested on: E. cloacae
Protocol: as §1

Citrobacter spp. = format: cell-based
Protocol: as §1

[1] = tested on: eight common bacterial pathogens of both gram-types; format: cell-based
Protocol: as §1

[2] = tested on: penicilin-susceptible pneumococci
Source text: as §2

[3] = tested on: penicilin-intermediate pneumococci
Source text: as §2

[4] = tested on: penicillin-resistant pneumococci
Source text: as §2

E. coli = format: cell-based, Escherichia coli
Protocol: as §1

A. baumannii = format: cell-based, Acinetobacter baumannii
Protocol: as §1

bacterial pathogens = experiment: Spectrum of antibacterial activity (summary in words); format: cell-based; conditions: against Streptococcus pneumoniae, Acinetobacter baumannii, Staphylococcus aureus, methicillin-resistant Staphylococcus aureus, Escherichia coli, Citrobacter spp.
P. aeruginosa = format: cell-based, Pseudomonas aeruginosa
Protocol: as §1

[5] = Pseudomonas aeruginosa, Enterococcus cloacae, Klebsiella pneumoniae
[6] = Pseudomonas aeruginosa, Enterococcus cloacae

“GLFDIWAWWRWRR-NH2 (C-terminus assumed) [SEQ ID NO:2, Gly-Leu-Phe-Asp-Ile-Trp-Ala-Trp-Trp-Arg-Trp-Arg-Arg]” was tested, and the MIC (K. pneumoniae) was over 250 µg/mL, the MIC (S. aureus) was 31.25 µg/mL and the “MIC level against Staphylococcus aureus as compared to methicillin-resistant Staphylococcus aureus” value (S. aureus) was “two fold lower”. For the same substance, the “Overall EP” value (Streptococcus pneumoniae) was 100%, the MIC (E. cloacae) was over 250 µg/mL and the MIC (Citrobacter spp.; Gram-negative) was 62.5 µg/mL. The “activity against the other bacteria” value ([1]; bacteria of Table 2 other than S. aureus, MRSA, A. baumannii, Citrobacter spp., E. coli) was “non-active”, the “EP (effective percentage, isolates inhibited within the effective range)” value [2] was 100% and the “ER (effective range of minimum inhibitory concentration)” value [2] was 15.63 to 250 µg/mL. For the same substance, the “EP (effective percentage, isolates inhibited within the effective range)” value [3] was 100%, the “ER (effective range of minimum inhibitory concentration)” value [3] was 7.81 to 250 µg/mL and the “EP (effective percentage, isolates inhibited within the effective range)” value [4] was 100%. For the same substance, the “ER (effective range of minimum inhibitory concentration)” value [4] was 15.63 to 250 µg/mL, the MIC (E. coli; Gram-negative) was 250 µg/mL and the MIC (A. baumannii; Gram-negative) was 31.25 µg/mL. For the same substance, the antimicrobial activity (bacterial pathogens) was “has antimicrobial activity”.

For “GLFDIWKKLRWRR-NH2 (C-terminus assumed) [SEQ ID NO:5, Gly-Leu-Phe-Asp-Ile-Trp-Lys-Lys-Leu-Arg-Trp-Arg-Arg]”, the MIC (K. pneumoniae) was 250 µg/mL, the MIC (S. aureus) was 125 µg/mL and the “Overall EP” value (Streptococcus pneumoniae) was 100%. The MIC (P. aeruginosa) was 31.25 µg/mL, the MIC (E. cloacae) was 125 µg/mL and the MIC (Citrobacter spp.) was 31.25 µg/mL. For the same substance, the “range of minimum inhibitory concentrations” value [1] was 31.25 to 125 µg/mL, the “EP (effective percentage, isolates inhibited within the effective range)” value [2] was 100% and the “ER (effective range of minimum inhibitory concentration)” value [2] was 15.63 to 125 µg/mL. For the same substance, the “EP (effective percentage, isolates inhibited within the effective range)” value [3] was 100%, the “ER (effective range of minimum inhibitory concentration)” value [3] was 15.63 to 125 µg/mL and the “EP (effective percentage, isolates inhibited within the effective range)” value [4] was 100%. The “ER (effective range of minimum inhibitory concentration)” value [4] was 31.25 to 125 µg/mL, the MIC (E. coli) was 31.25 µg/mL and the MIC (A. baumannii) was 31.25 µg/mL. The antimicrobial activity (bacterial pathogens; [5]) was “have antimicrobial activity”.

“GLFDIWKKWRWRR-NH2 (C-terminus assumed) [SEQ ID NO:4, Gly-Leu-Phe-Asp-Ile-Trp-Lys-Lys-Trp-Arg-Trp-Arg-Arg]” was tested, and the “Overall EP” value (Streptococcus pneumoniae) was 100% and the antimicrobial activity (bacterial pathogens; [6]) was “have antimicrobial activity”.

In the case of “GLFDIWKWWRWRR-NH2 (C-terminus assumed) [SEQ ID NO:3, Gly-Leu-Phe-Asp-Ile-Trp-Lys-Trp-Trp-Arg-Trp-Arg-Arg]”, the MIC (K. pneumoniae) is reported as 62.5 µg/mL, the “Overall EP” value (Streptococcus pneumoniae) is reported as 100% and the MIC (E. cloacae) is reported as 31.25 µg/mL. For the same substance, the MIC (Citrobacter spp.) was 15.63 µg/mL, the “range of minimum inhibitory concentration” value [1] was 7.81 to 125 µg/mL and the “EP (effective percentage, isolates inhibited within the effective range)” value [2] was 100%. For the same substance, the “ER (effective range of minimum inhibitory concentration)” value [2] was 7.81 to 62.5 µg/mL, the “EP (effective percentage, isolates inhibited within the effective range)” value [3] was 100% and the “ER (effective range of minimum inhibitory concentration)” value [3] was 7.81 to 250 µg/mL. For the same substance, the “EP (effective percentage, isolates inhibited within the effective range)” value [4] was 100%, the “ER (effective range of minimum inhibitory concentration)” value [4] was 15.63 to 62.5 µg/mL and the antimicrobial activity (bacterial pathogens; [5]) was “have antimicrobial activity”.

With “GLFDKWAWWRWRR-NH2 (C-terminus assumed) [SEQ ID NO:1, Gly-Leu-Phe-Asp-Lys-Trp-Ala-Trp-Trp-Arg-Trp-Arg-Arg]” the “Overall EP” value (Streptococcus pneumoniae) was 100% and the antimicrobial activity (bacterial pathogens; [6]) was “have antimicrobial activity”.
